According to ChEMBL document CHEMBL1128591, “1,2-Diarylcyclopentenes as selective cyclooxygenase-2 inhibitors and orally active anti-inflammatory agents” (J Med Chem, 1995):

Tests used:
[1] = molecular target: Prostaglandin G/H synthase 1 (Homo sapiens, UniProt P23219)
Rattus norvegicus [2] = organism: Rattus norvegicus; test: animal or person; settings: read-out: Inhibition
Rattus norvegicus [3] = organism: Rattus norvegicus; test: animal or person; settings: read-out: Inhibition; remark: listed apart in the source

Chain of Prostaglandin G/H synthase 1 (P23219 whole entry): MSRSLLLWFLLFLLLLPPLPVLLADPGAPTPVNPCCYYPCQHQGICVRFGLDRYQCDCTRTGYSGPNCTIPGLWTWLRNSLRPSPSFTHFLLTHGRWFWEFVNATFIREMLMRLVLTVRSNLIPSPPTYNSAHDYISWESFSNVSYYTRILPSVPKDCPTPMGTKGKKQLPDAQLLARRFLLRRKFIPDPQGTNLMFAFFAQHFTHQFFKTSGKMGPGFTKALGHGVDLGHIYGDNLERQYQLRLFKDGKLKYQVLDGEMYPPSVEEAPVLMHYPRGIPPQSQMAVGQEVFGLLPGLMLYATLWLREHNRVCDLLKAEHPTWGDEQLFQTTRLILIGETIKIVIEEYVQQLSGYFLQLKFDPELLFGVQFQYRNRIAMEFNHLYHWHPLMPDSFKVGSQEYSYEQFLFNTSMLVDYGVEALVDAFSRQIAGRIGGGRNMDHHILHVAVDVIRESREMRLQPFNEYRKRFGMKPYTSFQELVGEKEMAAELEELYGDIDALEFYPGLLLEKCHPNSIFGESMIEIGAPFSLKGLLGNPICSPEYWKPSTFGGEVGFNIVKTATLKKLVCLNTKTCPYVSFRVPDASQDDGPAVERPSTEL

Compound: COc1c(Cl)cc(C2=C(c3ccc(S(N)(=O)=O)cc3)CCC2)cc1Cl
- IC50 [1]: 71.6 µM

Compound: NS(=O)(=O)c1ccc(C2=C(c3ccc(Cl)c(Cl)c3)CCC2)cc1
- inhibition in vivo at 30 mg/kg (Rattus norvegicus [2]): 31%
- inhibition in vivo at 1 mg/kg (Rattus norvegicus [3]): 83%

Compound: CN(C)c1ccc(C2=C(c3ccc(S(C)(=O)=O)cc3)CCC2)cc1Cl
- IC50 [1]: 37.7 µM

Compound: CS(=O)(=O)c1ccc(C2=C(c3ccc(F)cc3)CCC2)cc1 [SC-57666]
- inhibition in vivo at 30 mg/kg (Rattus norvegicus [2]): 45.3%
- inhibition in vivo at 1 mg/kg (Rattus norvegicus [3]): 29.3%

Compound: COc1ccc(C2=C(c3ccc(S(N)(=O)=O)cc3)CCC2)cc1
- inhibition in vivo at 30 mg/kg (Rattus norvegicus [2]): 10%

Compound: COc1ccc(C2=C(c3ccc(S(N)(=O)=O)cc3)CCC2)cc1F
- inhibition in vivo at 1 mg/kg (Rattus norvegicus [3]): 25%

Compound: CS(=O)(=O)c1ccc(C2=C(c3ccc(F)c(C(F)(F)F)c3)CCC2)cc1
- IC50 [1]: > 100 µM

Compound: NS(=O)(=O)c1ccc(C2=C(c3ccc(F)cc3)CCC2)cc1
- inhibition in vivo at 30 mg/kg (Rattus norvegicus [2]): 45.3%
- inhibition in vivo at 1 mg/kg (Rattus norvegicus [3]): 79%

Compound: NS(=O)(=O)c1ccc(C2=C(c3ccc(F)c(Cl)c3)CCC2)cc1
- inhibition in vivo at 30 mg/kg (Rattus norvegicus [2]): 43.3%
- inhibition in vivo at 1 mg/kg (Rattus norvegicus [3]): 81.5%
- IC50 [1]: 5.1 µM

Compound: COc1ccc(C2=C(c3ccc(S(N)(=O)=O)cc3)CCC2)cc1Cl
- inhibition in vivo at 30 mg/kg (Rattus norvegicus [2]): 32%
- inhibition in vivo at 1 mg/kg (Rattus norvegicus [3]): 25%

Compound: CN(C)c1ccc(C2=C(c3ccc(S(N)(=O)=O)cc3)CCC2)cc1Cl
- IC50 [1]: 1.8 µM

Compound: CS(=O)(=O)c1ccc(C2=C(c3ccc(Cl)cc3)CCC2)cc1
- inhibition in vivo at 30 mg/kg (Rattus norvegicus [2]): 49%
- inhibition in vivo at 1 mg/kg (Rattus norvegicus [3]): 21%

Compound: CS(=O)(=O)c1ccc(C2=C(c3ccc(Cl)c(Cl)c3)CCC2)cc1
- inhibition in vivo at 1 mg/kg (Rattus norvegicus [3]): 45%

Compound: CS(=O)(=O)Nc1cc2c(cc1Sc1ccc(F)cc1F)C(=O)CC2
- IC50 [1]: > 10 µM

Compound: CS(=O)(=O)c1ccc(C2=C(c3cc(F)c(F)c(F)c3)CCC2)cc1
- IC50 [1]: > 100 µM

Compound: COc1ccc(C2=C(c3ccc(S(C)(=O)=O)cc3)CCC2)cc1
- inhibition in vivo at 30 mg/kg (Rattus norvegicus [2]): 42.7%
- inhibition in vivo at 1 mg/kg (Rattus norvegicus [3]): 0%

Compound: NS(=O)(=O)c1ccc(C2=C(c3ccc4c(c3)OCO4)CCC2)cc1
- IC50 [1]: 1.9 µM

Compound: CS(=O)(=O)c1ccc(C2=C(c3ccc(C(F)(F)F)c(F)c3)CCC2)cc1
- IC50 [1]: > 100 µM

Compound: NS(=O)(=O)c1ccc(C2=C(c3cc(F)c(F)c(F)c3)CCC2)cc1
- IC50 [1]: > 100 µM

Compound: NS(=O)(=O)c1ccc(C2=C(c3ccc(C(F)(F)F)c(F)c3)CCC2)cc1
- IC50 [1]: 14.5 µM

Compound: COc1c(Cl)cc(C2=C(c3ccc(S(C)(=O)=O)cc3)CCC2)cc1Cl
- IC50 [1]: > 100 µM

Compound: CS(=O)(=O)c1ccc(C2=C(c3ccc(F)c(Cl)c3)CCC2)cc1
- inhibition in vivo at 30 mg/kg (Rattus norvegicus [2]): 40%
